{"source": "patent US7166612B2", "about": "“Methods for reducing platelet activation platelet aggregaton or thrombosis” (Beth Israel Deaconess Medical Center, priority 2001, dated 2007)", "key": {"[1]": {"test_system": "platelet F-actin assembly", "experiment": "F-actin assembly (FITC-phalloidin, flow cytometry)", "assay_type": "cell-based", "conditions": "in words", "text": "To determine whether or not the effects of the pyridazinone compound were limited to inhibition of alpha-granule secretion, the ability of the compound to inhibit F-actin assembly and aIIbβ3 activation was examined. F-actin assembly was detected using FITC-phalloidin and quantified by flow cytometry (Winokur et al., 1995, Blood 85, 1796–804; Oda et al., 1992, Blood 79, 920–7)."}, "[2]": {"test_system": "laser-induced thrombi in cremaster arterioles", "assay_type": "in vivo", "text": "A preferred animal model involves intravital microscopy of laser-induced thrombi. The method is described by Rosen et al., 2001, Am J Pathol 158, 1613–1622, which is incorporated herein by reference. Minor variations of that method were employed as described below.\nExperimental mice are pre-anesthetized and surgically prepared. A tracheal tube is placed to facilitate breathing and the jugular vein is canulated to allow for maintenance of anesthetic and introduction of compound. The cremaster muscle is then exteriorized. The muscle is affixed over a glass slide, allowing illumination from below. A steady drip of a sodium-bicarbonate buffered salt solution is maintained throughout the experiment to keep the exposed muscle moist. Blood flow in the muscle is visualized using a 40× water immersion lens and epi-illuminated with an appropriately filtered light source. Alexa 488-labeled anti-mouse CD41 antibody is injected through the jugular canulus to label platelets in vivo.\nThrombosis is initiated by damaging the vessel wall (of a 30 μm vessel) with a laser pulse from a MicroPoint LASER attached to the microscope. A LASER pulse is delivered, causing damage in an area smaller than 1 μm. The recruitment of platelets to the thrombus is then monitored by the accumulation of (activated) Alexa 488-labeled platelets at the ablation site using fluorescence microscopy, and the process is recorded digitally. The method thus permits in vivo analysis of platelet activation as measured by platelet aggregation and thrombosis.\nThe degree of embolization in an untreated mouse can be quantified using software for image analysis, e.g., BioQuant True Color Windows (Biometrics, Nashville, Tenn.), as described in Rosen et al., 2001, supra. The software package permits the determination of the “integrated optical density” or IOD of the thrombus.\nUsing quantitative intravital fluorescence videomicroscopy with high temporal resolution (111 images/second), the effect of PDE3 inhibition on the platelet recruitment into thrombi was directly observed over time. Platelets were fluorescently labeled by infusing rat-anti-mouse CD41 and Alexa 488-anti-rat IgG through a cannulated jugular vein. The cremaster microvasculature was exposed and mapped and suitable arteriole segments were selected for laser-induced injury. A series of control injuries were generated prior to infusion of the inhibitory compound. The power and the number of laser pulses required to generate each thrombus was recorded. Platelet accumulation to the thrombi following laser ablation was recorded using digital videomicroscopy. The thrombus total fluorescence in each frame of the videos was analyzed using Slidebook software for digital videomicroscopy. The pyridazinone compound was then infused. Following a 15 minute incubation, a series of experimental injuries were generated 250 μm proximal, with relationship to blood flow, of the first injury and the resultant thrombi were recorded. The power and the number of pulses required to induce the control thrombus was used to induce the experimental thrombus. The control and experimental thrombi constituting a pair were compared for statistical analysis. The total fluorescence intensity of the thrombi before and after the infusion of pyridazinone compound was recorded.\nImages from a representative experiment of the recruitment of fluorescently-labeled […] platelets into a growing thrombus over time is shown in FIG. 9A."}, "[3]": {"biological_target": "recombinant human PDE2 (Homo sapiens, UniProt O00408)", "sequence (O00408 whole entry)": "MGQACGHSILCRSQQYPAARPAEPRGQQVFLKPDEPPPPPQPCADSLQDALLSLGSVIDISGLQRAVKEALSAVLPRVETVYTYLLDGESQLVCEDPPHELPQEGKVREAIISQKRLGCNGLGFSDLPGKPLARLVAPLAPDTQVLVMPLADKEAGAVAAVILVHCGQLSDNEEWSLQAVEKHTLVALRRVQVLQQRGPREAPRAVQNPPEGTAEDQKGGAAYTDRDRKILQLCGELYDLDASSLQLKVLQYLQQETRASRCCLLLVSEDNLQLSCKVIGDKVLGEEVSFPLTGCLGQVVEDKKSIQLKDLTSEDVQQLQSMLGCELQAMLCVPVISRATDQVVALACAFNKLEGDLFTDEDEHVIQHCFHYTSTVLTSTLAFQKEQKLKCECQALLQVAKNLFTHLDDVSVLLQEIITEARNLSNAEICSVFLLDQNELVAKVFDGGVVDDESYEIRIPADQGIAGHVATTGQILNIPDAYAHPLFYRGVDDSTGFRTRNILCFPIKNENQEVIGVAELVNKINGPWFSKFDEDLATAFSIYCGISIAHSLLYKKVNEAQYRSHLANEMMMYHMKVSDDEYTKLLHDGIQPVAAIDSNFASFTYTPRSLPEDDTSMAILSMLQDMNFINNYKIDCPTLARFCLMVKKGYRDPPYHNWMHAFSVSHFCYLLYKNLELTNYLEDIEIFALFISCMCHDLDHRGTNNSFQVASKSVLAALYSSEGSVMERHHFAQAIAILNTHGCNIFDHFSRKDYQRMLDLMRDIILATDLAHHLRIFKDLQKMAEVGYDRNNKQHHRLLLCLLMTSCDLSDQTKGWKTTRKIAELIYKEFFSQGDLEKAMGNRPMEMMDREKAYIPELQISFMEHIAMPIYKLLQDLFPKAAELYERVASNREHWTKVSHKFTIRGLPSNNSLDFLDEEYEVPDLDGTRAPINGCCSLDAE", "experiment": "phosphodiesterase inhibition, PDE2", "assay_type": "biochemical", "conditions": "up to 1 μM, in words", "experimental": "(§1) Intracellular cAMP generated by adenylyl cyclase in platelets is actively hydrolyzed by phosphodiesterase. […] Human platelets express PDE2, PDE3, and PDE5. Therefore, the compound was tested for its inhibitory effect on these phosphodiesterases using methods as described in Example 3."}, "[4]": {"biological_target": "T1, human platelet PDE3 (Homo sapiens, UniProt Q14432)", "T1 construct": "from tissue; host or cells: human platelets", "T1 sequence (Q14432 whole entry)": "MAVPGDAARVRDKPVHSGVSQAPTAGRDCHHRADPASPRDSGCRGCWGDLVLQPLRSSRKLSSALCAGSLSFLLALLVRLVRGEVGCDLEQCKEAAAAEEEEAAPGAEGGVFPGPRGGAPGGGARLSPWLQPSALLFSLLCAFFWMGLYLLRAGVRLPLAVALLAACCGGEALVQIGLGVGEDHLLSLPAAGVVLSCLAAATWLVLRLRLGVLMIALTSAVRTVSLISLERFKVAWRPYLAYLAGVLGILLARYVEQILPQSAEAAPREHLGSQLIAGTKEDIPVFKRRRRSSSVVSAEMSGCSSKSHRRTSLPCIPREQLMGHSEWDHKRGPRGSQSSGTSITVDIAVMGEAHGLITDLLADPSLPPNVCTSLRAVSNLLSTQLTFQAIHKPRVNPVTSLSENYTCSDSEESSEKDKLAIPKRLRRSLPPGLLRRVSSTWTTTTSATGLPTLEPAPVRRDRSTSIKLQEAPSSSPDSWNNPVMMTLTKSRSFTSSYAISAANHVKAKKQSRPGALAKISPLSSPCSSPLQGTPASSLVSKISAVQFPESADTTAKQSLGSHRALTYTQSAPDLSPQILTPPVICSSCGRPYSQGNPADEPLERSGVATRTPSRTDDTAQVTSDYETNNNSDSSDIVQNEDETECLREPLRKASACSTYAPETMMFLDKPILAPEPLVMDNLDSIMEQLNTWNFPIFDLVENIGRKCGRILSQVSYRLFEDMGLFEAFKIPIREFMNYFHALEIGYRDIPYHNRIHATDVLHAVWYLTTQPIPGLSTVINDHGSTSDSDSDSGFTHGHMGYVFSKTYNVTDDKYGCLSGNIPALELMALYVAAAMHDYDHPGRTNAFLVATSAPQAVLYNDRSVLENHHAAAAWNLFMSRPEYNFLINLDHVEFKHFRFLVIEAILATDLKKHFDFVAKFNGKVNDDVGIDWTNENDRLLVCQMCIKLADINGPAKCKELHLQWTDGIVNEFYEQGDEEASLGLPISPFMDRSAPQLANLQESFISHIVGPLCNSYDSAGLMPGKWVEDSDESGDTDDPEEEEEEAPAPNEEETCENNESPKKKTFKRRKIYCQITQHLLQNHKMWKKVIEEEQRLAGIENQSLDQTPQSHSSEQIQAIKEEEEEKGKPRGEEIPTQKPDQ", "experiment": "phosphodiesterase inhibition, PDE3", "assay_type": "biochemical", "experimental": "as §1"}, "[5]": {"test_system": "thromboemboli from laser-induced thrombi", "experiment": "thromboembolization from laser-induced thrombi (intravital videomicroscopy)", "assay_type": "in vivo, mouse", "experimental": "(A) Thromboembolic events distal from the thrombus were captured using quantitative intravital fluorescence videomicroscopy with high temporal resolution( (111 frames/second) and the total amount of thromboembolization was calculated by determining the total fluorescence intensity of the fluorescently labeled platelets in thromboemboli. (B) Thromboembolization was recorded before infusion of pyridazinone compound. Platelet accumulation into thrombus is indicated by the gray line. Thromboembolism from the same thrombus is measured over time and is indicated by black bars. Each black bar represents a single thromboembolic event of the indicated fluorescent intensity.\nUnder these conditions, a dynamic thrombus that undergoes continuous cyclic embolization and re-accumulation is observed. The degree of embolization in an untreated mouse can be quantified using software for image analysis, e.g., BioQuant True Color Windows (Biometrics, Nashville, Tenn.), as described in Rosen et al., 2001, supra. […]\nUsing quantitative intravital fluorescence videomicroscopy with high temporal resolution, thromboemboli were detected and the total amount of fluorescence of the thromboemboli was measured (FIG. 11A). For this analysis, thromboembolus was defined as a platelet aggregate with a fluorescent intensity two standard deviations above the maximum background fluorescence of the arteriole before injury. […]"}}, "note": "pIC50: −log10 of the molar value."}
{"smiles": "CC1CC(=O)NN=C1c1ccc(N)c([N+](=O)[O-])c1", "note": "(stereo not drawn) [6-(4-Amino-3-nitro-phenyl)-5-methyl-4,5-dihydro-2H-pyridazin-3-one]", "values": [{"measurement": "SFLLR-induced F-actin assembly", "setting": "[1]", "value": "interferes with SFLLR-induced cytoskeleton rearrangement"}, {"measurement": "stabilized platelet accumulation", "setting": "[2]; 0.6 mg/kg (P<0.05) and 1.2 mg/kg (P<0.01), in words", "value": "dose-dependent inhibition"}, {"measurement": "maximum platelet accumulation compared to absence of compound", "setting": "[2]; 0.6 and 1.2 mg/kg, P<0.05, in words", "value": "statistically significant decrease"}, {"measurement": "time to achieve the maximum rate of platelet recruitment", "setting": "[2]; after laser injury, not affected by PDE3 inhibition, 0.3 and 1.2 mg/kg", "value": "approximately 27 seconds"}, {"measurement": "inhibition of recombinant human PDE2", "setting": "[3]; listed as Pyridazinone compound", "value": "No significant inhibition"}, {"measurement": "inhibition of recombinant human PDE2", "setting": "[3]; listed as pyridazinone compound", "value": "little inhibition"}, {"measurement": "pIC50", "setting": "[4]", "value": 7.82}, {"measurement": "thromboembolization after infusion", "setting": "[5]; 1.2 mg/kg, in words", "value": "significantly reduced"}, {"measurement": "reduction of embolization", "setting": "[5]; after injection of compound", "value": "greater than 80%"}]}
